Test results as given in US12296011B2, “Methods for photodynamic therapy” (Sun Pharmaceutical Industries, Inc., priority 2018, dated 2025).

Tests used:
[1] = clinical; conditions: both, human, plasma, topical or ocular, 354 mg
Description: (§1) Two open-label, pharmacokinetic studies were carried out to evaluate the potential for systemic exposure of ALA and ALA and protoporphyrin IX (PpIX) when applied topically under occlusion, in a maximal use setting in patients with multiple actinic keratoses (AK) lesions on the upper extremities. In accordance with at least one embodiment, a 20% w/w topical composition of 5-aminolevulinic acid (ALA) was directly applied topically via an applicator to the upper extremities of the patients followed by covering with an occlusive, polyethylene film for a 3 hour incubation period. Light treatment was administered after the incubation period. Each subject received 10 J/cm^2 of visible blue light delivered at 10 mW/cm^2.
(§2) In the first of the two studies, a total of 29 participants were enrolled. The participants were males and non-pregnant females, aged 18 years or older. […] The subjects received one treatment and were followed until week four after treatment. The treatment area, designated at baseline for the duration of the study, was the extensor surface of both distal upper extremities, as defined in the protocol (i.e., the dorsal hands/forearms). In the second of the two studies, a total of 14 participants were enrolled. Males and non-pregnant females, aged 18 years or older, with at least six Grade 1 or Grade 2 AK lesions on one upper extremity treatment area and at least 12 Grade 1 or Grade 2 AK lesions on the other upper extremity treatment area, were eligible for the study.

[2] = Solubility in water; assay type: physicochemical
[3] = Open-label maximal use pharmacokinetic study, topical ALA under occlusion (first study)
Description: as §1, §2
(§3) The term “Cmax,” as used herein refers to maximum observed plasma concentrations based on actual values measured following study medication application.

[4] = Open-label maximal use pharmacokinetic study, topical ALA under occlusion (another experiment)
Description: as §1, §2

[5] = system: actinic keratoses; assay: Randomized vehicle-controlled photodynamic therapy study, ALA with LDPE occlusion and blue light; assay type: in vivo, human
Description: The actinic keratoses were present on the upper extremities, more specifically, on the dorsal surface of the hands and/or the forearm area between the elbow and the base of the fingers. Subjects ranged from 45 to 90 years of age (mean 68 years) and 90% had Fitzpatrick Skin Type I, II or III. Subjects were randomized to treatment in a 1:1 ratio. ALA was applied to lesions on the dorsal surface of one hand or the forearm for each subject, and the dorsal surface of the hand or the forearm was then occluded with low density polyethylene barrier for three hours. Following removal of the low density polyethylene barrier, a 10 J/cm^2 dose of blue light was delivered at 10 mW/cm^2, with treatment repeated after 8 weeks if any lesion(s) remained in the treatment area.
The recurrence rate corresponds to the percentage of subjects with at least one recurrent lesion during the 12 month follow up period following the evaluation at twelve weeks who had previously achieved complete clearance at twelve weeks following treatment.

[6] = clinical; conditions: both, human, plasma
Description: as §1, §2, §3

[7] = following a baseline correction
[8] = topical, 3 hour occlusion, not baseline corrected

Compound: Cl.NCC(=O)CCC(=O)O [ALA, 5-amino-4-oxopentanoic acid hydrochloride]
- bioavailability [1]: ~1%
- solubility in water [2]: highly soluble
- ALA geometric mean maximum plasma concentration [3, 7]: 80 ng/mL
- time of maximum plasma concentration (median) [3, 7]: 2 h
- geometric mean maximum plasma concentration [3, 8]: about 98 ng/mL
- time of maximum plasma concentration (median) [3, 8]: 2 h
- ALA geometric mean maximum plasma concentration [4, 7]: 39 ng/mL
- time of maximum plasma concentration (median) [4, 7]: 2 h
- time of maximum plasma concentration (median) ([4]; not baseline corrected): 2 h
- geometric mean maximum plasma concentration ([4]; topical, not baseline corrected): about 61 ng/ml
- complete clearance (subjects with resolution of the actinic keratoses) ([5]; twelve weeks after initial treatment, 3 h LDPE occlusion, 10 J/cm^2 blue light, 42 out of 135 subjects): 31%
- recurrence rate ([5]; twelve-month follow-up of subjects with complete clearance at twelve weeks): 58%
- AUC(0-t) ([6]; topical): 282 ng·h/mL
- AUC(0-t) ([6]; topical or ocular): 577 ng·h/mL
- Cmax ([6]; topical or ocular, 354 mg): < 110 ng/mL
